# pIC50: −log10 of the molar value. Like-named read-outs stand apart in the source and are kept apart here.
# Experiments:
# [1] = target: PI3Kδ (His-PIK3CD/PIK3R1, p110 delta/p85 alpha) (Homo sapiens (Human), UniProt O00329); assay: PI3Kδ biochemical assay (HTRF/FRET probe); type: binding; conditions: class symbol
# Procedure: Phosphoinositide 3-kinase (PI3K) Biochemical Assay: A solution was prepared containing 0.2 nM Anti-HIS-Terbium (Cisbio, 64CUSTAZU), 40 nM designed-probe and 1.0 nM His-PIK3CD/PIK3R1 (p110 delta/p85 alpha) in FRET Buffer (20 mM HEPES, 10 mM MgCl2, 0.015% Brij-35, 4 mM DTT, 0.05 mg/mL BSA).
# [2] = target: PI3Kα (His-PIK3CA/PIK3R1, p110 alpha/p85 alpha) (Homo sapiens (Human), UniProt P42336); assay: PI3Kα biochemical assay (HTRF/FRET probe); type: binding; conditions: class symbol
# Chain of PI3Kα (His-PIK3CA/PIK3R1, p110 alpha/p85 alpha) (P42336 whole entry, species assumed): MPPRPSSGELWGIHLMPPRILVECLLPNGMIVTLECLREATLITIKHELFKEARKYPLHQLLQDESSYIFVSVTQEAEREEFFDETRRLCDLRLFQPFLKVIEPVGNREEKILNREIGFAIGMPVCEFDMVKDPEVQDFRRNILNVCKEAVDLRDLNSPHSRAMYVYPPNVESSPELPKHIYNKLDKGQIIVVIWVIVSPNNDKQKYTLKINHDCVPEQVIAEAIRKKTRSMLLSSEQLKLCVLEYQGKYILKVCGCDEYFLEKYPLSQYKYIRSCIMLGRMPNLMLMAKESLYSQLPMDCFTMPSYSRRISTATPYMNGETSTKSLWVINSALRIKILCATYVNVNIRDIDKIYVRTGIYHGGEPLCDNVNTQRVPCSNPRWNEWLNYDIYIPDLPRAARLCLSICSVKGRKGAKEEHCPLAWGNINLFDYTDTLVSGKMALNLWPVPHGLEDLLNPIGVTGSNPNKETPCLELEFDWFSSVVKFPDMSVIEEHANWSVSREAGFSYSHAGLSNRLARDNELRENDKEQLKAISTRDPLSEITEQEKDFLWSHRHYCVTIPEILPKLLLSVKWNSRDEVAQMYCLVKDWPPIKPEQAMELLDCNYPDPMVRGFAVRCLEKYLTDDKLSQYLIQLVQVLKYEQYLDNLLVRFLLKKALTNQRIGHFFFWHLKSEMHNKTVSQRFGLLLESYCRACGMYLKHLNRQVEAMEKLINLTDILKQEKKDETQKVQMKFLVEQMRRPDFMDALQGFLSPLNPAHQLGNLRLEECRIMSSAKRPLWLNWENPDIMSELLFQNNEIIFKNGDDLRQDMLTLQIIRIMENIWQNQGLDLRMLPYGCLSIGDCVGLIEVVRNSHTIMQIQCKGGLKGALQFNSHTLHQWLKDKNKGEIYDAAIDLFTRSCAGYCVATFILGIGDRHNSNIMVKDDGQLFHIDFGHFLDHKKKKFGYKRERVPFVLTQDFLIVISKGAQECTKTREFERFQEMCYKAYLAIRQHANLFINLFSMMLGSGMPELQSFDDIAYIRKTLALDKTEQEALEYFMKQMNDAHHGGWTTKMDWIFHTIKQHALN
# Chain of PI3Kα (His-PIK3CA/PIK3R1, p110 alpha/p85 alpha) (P27986 whole entry partner, species assumed): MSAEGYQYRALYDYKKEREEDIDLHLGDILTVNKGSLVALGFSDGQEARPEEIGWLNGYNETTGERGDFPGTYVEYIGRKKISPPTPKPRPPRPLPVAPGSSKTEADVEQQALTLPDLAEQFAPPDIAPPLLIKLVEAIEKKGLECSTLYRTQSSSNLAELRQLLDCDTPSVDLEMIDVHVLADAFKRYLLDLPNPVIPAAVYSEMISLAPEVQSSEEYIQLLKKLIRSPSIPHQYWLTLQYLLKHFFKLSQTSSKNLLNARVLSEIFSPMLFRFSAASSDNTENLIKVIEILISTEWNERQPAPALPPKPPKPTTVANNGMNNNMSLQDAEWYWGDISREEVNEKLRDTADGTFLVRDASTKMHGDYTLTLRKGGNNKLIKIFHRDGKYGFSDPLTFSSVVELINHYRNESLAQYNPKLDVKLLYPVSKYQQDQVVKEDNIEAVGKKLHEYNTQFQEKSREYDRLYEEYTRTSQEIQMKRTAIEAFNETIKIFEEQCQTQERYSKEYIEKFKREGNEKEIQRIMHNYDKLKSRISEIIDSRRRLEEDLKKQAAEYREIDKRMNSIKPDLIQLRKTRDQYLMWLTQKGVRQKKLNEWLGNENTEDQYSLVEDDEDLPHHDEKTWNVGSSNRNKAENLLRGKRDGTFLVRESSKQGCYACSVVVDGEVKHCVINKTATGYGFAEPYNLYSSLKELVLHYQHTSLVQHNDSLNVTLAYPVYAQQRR
# Procedure: Phosphoinositide 3-kinase α (PI3Kα) Biochemical Assay: A solution was prepared containing 0.2 nM Anti-HIS-Terbium (Cisbio, 64CUSTAZU), 3.7 nM designed-probe and 1.0 nM His-PIK3CA/PIK3R1 (p110 alpha/p85 alpha) in FRET Buffer (20 mM HEPES, 10 mM MgCl2, 0.015% Brij-35, 4 mM DTT, 0.05 mg/mL BSA).
# [3] = target: ATM (Homo sapiens (Human), UniProt Q13315); assay: ATM biochemical assay (Reaction Biology HTRF kinase assay, 10 μM ATP)
# Method in brief: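 HTRF kinase assay with N-terminal GST-tagged human p53 (aa2-393) substrate, 10 μM ATP, in 50 mM Hepes pH 7.5, 10 mM MnCl2, 1% DMSO. Enzyme preincubated with compound 30 min, reaction 2 h at room temperature. pS15 phosphorylation read by Eu-cryptate anti-p53-pS15/anti-GST-d2 HTRF (615/665 nm).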
# [4] = target: DNA-PK (Homo sapiens (Human), UniProt P78527); assay: DNA-PK biochemical assay (Reaction Biology HotSpot kinase assay, 10 μM ATP)
# Method in brief: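 Radiometric 33P-ATP kinase reaction in 20 mM Hepes pH 7.5, 10 mM MgCl2, 1 mM EGTA, 2 mM DTT, 1% DMSO. Compound preincubated with kinase and substrate 20 min at room temperature, then reaction run 2 h at room temperature after ATP addition. Activity read by P81 filter binding.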
# [5] = target: PI3Kβ (Homo sapiens (Human), UniProt P42338); assay: PI3Kβ biochemical assay (Reaction Biology ADP-Glo); conditions: class symbol
# Chain of PI3Kβ (P42338 whole entry): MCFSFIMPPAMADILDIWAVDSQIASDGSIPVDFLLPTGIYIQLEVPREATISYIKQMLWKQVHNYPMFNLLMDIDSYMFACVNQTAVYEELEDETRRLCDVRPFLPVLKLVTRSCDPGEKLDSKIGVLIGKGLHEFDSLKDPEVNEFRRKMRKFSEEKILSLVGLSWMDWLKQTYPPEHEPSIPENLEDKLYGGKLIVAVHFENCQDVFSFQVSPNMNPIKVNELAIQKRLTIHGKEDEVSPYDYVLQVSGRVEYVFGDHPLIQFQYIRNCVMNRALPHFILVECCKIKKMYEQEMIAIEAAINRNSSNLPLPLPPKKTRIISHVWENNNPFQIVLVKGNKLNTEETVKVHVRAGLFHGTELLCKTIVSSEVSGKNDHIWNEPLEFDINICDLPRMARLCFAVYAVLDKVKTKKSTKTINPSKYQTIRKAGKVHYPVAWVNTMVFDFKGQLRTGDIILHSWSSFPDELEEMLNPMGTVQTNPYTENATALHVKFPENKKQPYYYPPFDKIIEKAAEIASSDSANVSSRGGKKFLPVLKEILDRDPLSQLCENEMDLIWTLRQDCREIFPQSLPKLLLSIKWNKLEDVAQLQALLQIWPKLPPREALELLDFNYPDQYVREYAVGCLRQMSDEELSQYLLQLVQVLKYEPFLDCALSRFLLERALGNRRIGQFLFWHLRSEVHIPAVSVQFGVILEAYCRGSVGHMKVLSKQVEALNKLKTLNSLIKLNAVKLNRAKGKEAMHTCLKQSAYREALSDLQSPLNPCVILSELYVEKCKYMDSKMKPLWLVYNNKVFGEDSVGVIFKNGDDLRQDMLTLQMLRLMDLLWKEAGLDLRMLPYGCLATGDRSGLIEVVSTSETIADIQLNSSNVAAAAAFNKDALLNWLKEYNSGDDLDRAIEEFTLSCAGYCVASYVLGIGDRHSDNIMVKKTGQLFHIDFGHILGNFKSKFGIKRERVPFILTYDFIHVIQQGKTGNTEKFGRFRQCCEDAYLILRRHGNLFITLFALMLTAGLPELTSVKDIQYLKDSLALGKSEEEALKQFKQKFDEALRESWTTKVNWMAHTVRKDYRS
# Chain of PI3Kβ (P27986 whole entry partner): as the sequence (P27986 whole entry partner, species assumed) above
# Procedure: Phosphoinositide 3-kinase R (PI3KP) Biochemical Assay using Reaction Biology's ADP-Glo Assay Platform:
# Step 1: Lipid kinases: Reaction Biology Corporation (RBC) currently offers lipid kinases in ADP-Glo format
# Step 2: Assay Description Assay principle: The kinase reactions utilize ATP and produce ADP as a byproduct. The ADP production is quantified by ADP-Glo luminescence detection. This is a 3-step reaction: First, the kinase reaction with lipid substrate is carried out in the presence of ATP, and the reaction is quenched and depleted remaining ATP with ADP-Glo™ reagent, and then finally ADP is converted to ATP which is measured using a luciferase/luciferin reaction.
# Step 3: Assay Procedure: 1. Prepare kinase in freshly prepared Reaction Buffer, kinase without substrate is delivered to background wells; 2. Deliver substrate into the kinase solution and gently mix, deliver to assay wells; 3. Deliver compounds in 100% DMSO into the kinase reaction mixture by Acoustic technology (Echo550; nanoliter range), incubate for 20 min at room temperature; 4. Deliver ATP into the reaction mixture to initiate the reaction; 5. Incubate for 60 min at 30° C.; 6. Quench the reaction with ADP-Glo reagent and incubate for 40 min; 7. Add Detection Mixture and incubate for 30 min; 8. Measure luminescence.
# Step 4: Data Analysis: The luminescence is converted into M ADP production based on ADP standard curves. The nonlinear regression to obtain the standard curve and IC50 values are performed using Graphpad Prism software.
# [6] = read-out: DNA-PK HotSpot 10 μM ATP IC50, class symbol
# Chain of PI3Kδ (His-PIK3CD/PIK3R1, p110 delta/p85 alpha) (O00329 whole entry, species assumed): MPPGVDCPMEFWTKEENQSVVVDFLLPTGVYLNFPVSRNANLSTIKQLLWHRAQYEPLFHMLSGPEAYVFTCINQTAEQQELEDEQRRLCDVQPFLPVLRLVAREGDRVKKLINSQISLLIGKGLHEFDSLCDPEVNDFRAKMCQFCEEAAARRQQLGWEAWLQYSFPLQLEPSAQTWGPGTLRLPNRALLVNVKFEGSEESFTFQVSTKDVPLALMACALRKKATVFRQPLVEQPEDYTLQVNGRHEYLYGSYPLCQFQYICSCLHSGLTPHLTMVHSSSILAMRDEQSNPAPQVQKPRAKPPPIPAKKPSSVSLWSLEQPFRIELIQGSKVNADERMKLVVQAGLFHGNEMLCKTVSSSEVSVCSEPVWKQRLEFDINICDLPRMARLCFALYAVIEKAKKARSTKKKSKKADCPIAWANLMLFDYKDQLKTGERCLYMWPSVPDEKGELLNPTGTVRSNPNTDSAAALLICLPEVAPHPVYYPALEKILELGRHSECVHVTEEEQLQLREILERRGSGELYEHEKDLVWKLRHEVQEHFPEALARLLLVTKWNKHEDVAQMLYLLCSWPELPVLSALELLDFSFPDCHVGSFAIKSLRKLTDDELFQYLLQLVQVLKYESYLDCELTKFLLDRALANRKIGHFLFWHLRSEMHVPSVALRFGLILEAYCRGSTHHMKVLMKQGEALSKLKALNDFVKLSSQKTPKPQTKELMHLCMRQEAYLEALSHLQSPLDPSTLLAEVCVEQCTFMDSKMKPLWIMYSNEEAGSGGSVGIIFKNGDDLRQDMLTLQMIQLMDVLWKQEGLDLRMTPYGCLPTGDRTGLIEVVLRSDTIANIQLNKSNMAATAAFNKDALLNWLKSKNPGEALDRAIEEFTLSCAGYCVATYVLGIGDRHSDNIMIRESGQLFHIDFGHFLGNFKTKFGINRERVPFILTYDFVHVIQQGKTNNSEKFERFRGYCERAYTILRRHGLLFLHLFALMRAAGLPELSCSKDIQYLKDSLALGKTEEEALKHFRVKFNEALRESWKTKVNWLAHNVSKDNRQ
# Chain of PI3Kδ (His-PIK3CD/PIK3R1, p110 delta/p85 alpha) (P27986 whole entry partner, species assumed): as the sequence (P27986 whole entry partner, species assumed) above
pIC50 [1],pIC50 [2],pIC50 ([3]; class symbol),"pIC50 [4, 6]",pIC50 [5],"pIC50 ([3]; read-out: ATM HTRF 10 μM ATP IC50, class symbol)",pIC50 ([4]; class symbol),SMILES
≤ 6.00,6.00 to 7.00,7.00 to 8.00,> 9.00,6.00 to 7.00,,,"COC12CCC(n3c(=O)n(C)c4cnc(Nc5cn6ncnc6cc5C)nc43)(CC1)C2 [Compound 6, 9-(4-methoxybicyclo[2.2.1]heptan-1-yl)-7-methyl-2-((7-methyl-[1,2,4]triazolo[1,5-a]pyridin-6-yl)amino)-7,9-dihydro-8H-purin-8-one]"
≤ 6.00,≤ 6.00,,,≤ 6.00,≤ 6.00,8.00 to 9.00,"Cc1cc2c(cc1Nc1ncc3c(n1)n(C14CC(F)(C1)C4)c(=O)n3C)OCO2 [Compound 13, 9-(3-fluorobicyclo[1.1.1]pentan-1-yl)-7-methyl-2-((6-methylbenzo[d][1,3]dioxol-5-yl)amino)-7,9-dihydro-8H-purin-8-one]"
≤ 6.00,≤ 6.00,6.00 to 7.00,> 9.00,≤ 6.00,,,"Cc1cc2c(cc1Nc1ncc3c(n1)n([C@H]1C[C@@H]4CC[C@H]1C4)c(=O)n3C)OCO2 [Compound 46, 9-((1S,2S,4R)-bicyclo[2.2.1]heptan-2-yl)-7-methyl-2-((6-methylbenzo[d][1,3]dioxol-5-yl)amino)-7,9-dihydro-8H-purin-8-one]"
≤ 6.00,≤ 6.00,6.00 to 7.00,> 9.00,≤ 6.00,,,"Cc1cc2c(cc1Nc1ncc3c(n1)n(C1CC4CCC1CC4)c(=O)n3C)OCO2 (centres unmarked) [Compound 43, 9-((1s,4s)-bicyclo[2.2.2]octan-2-yl)-7-methyl-2-((6-methylbenzo[d][1,3]dioxol-5-yl)amino)-7,9-dihydro-8H-purin-8-one]"

# From US20250263753A1, “BRIDGED CYCLE-BASED INHIBITORS OF DNA-DEPENDENT PROTEIN KINASE AND COMPOSITIONS AND APPLICATION IN GENE EDITING” (Juno Therapeutics, Inc., priority 2023, published 2025)
